# Data as given in paper PMC11220827 (Frontiers in Pharmacology, 2024).
# Read-outs that look alike come from different tables or passages of the source.
# Tests used:
# HepG2 cells = assay: cells; assay type: cell-based
# H295R cells [1] = details: reference: Forskolin (↑), prochloraz (↓)
# Method: (§1) DMSO (1% compound stock in incubation mixture).
# was measured on a Berthold luminometer.
# (§2) Serial dilutions of the compounds were incubated in Tris -buffer (pH 8.0) overnight at 4°C in the
# (§3) incubation mixture). After incubation, TTR-bound and free T4 were separated on a Bio-Gel P-6DG
# (§4) column. The eluate was added to assay medium after which TRβ CALUX cells were exposed for 24 h
# (§5) For this TRβ CALUX exposure, serum-free assay medium was used.
# (§6) wells plates in assay medium, and exposed for 48h to a serial dilution of the compound in triplicate
# (§7) exposure, the assay medium was analysed on the ERα and AR CALUX bioassays as described
# (§8) Changes in hormone levels compared to a vehicle control exposure
# (§9) Preincubation with rat liver S9 fraction
# (§10) To assess the effect of metabolism on the activity of the test
# (§11) compound for these assays, preincubations with rat liver S9 were performed. Compounds (10 μl
# (§12) DMSO stock solution) were incubated for 0 h (control) or 3 h (test condition) in a total volume of 1
# (§13) ml TRIS buffer in the presence of 1% (v/v) PB/BNF induced rat liver S9 mix (including NADPH and
# (§14) an NADPH-regenerating system). After incubation, the reaction was stopped by the addition of ice
# (§15) cold acetone, and samples were frozen to stimulate protein precipitation. After thawing, the
# (§16) precipitated protein fraction was subsequently removed by centrifugation. The supernatant, cont aining
# (§17) the metabolites and any remaining non-metabolised parent compound, was concentrated under a
# (§18) gentle nitrogen flow. After evaporating to dryness, the sample was taken up in 50 μl DMSO followed
# (§19) by the addition of 50 μl TRIS buffer. This extract was used for the exposure of the hTPO inhibition,
# (§20) Relative light units (RLUs) of the CALUX assays were analysed as follows. For agonist assays,
# (§21) background values (exposure to DMSO only) were subtracted, and the maximum activity of the
# (§22) assay’s reference compound was set to 100%. For antagonist assays, the basal signal (exposure to fixed concentration of agonist only) was set to 100%. Activity of the samples was scaled accordingly,
# (§23) resulting in expression of the data as “percentage of maximum reference response”. Graphs were
# (§24) generated using the statistical software package GraphPad Prism V5.03. Using these graphs, lowest
# (§25) effect concentrations (LOECs) and PC50 concentrations were determined; LOEC is defined as the
# (§26) maximum reference compound activity for agonist assays, and 20% of the maximum reference
# (§27) compound activity for antagonist assays. The PC50 is defined as the concentration where the activity
# (§28) of the sample equals 50% of the maximum activity of the assay’s reference compound.
# (§29) the test compound was divided by the amount of estrogens and androgens produced by the solvent
# (§30) control-exposed cells. A sample was considered ‘active’ if it decreased the hormone production 0.8-
# H295R cells [2] = details: reference: Forskolin (↑), prochloraz (↓); remark: listed apart in the source
# Method: as §1
# was measured on a Berthold luminometer.
# as §2, §3, §4, §5, §6, §7, §8, §9, §10, §11, §12, §13, §14, §15, §16, §17, §18, §19, §20, §21, §22, §23, §24, §25, §26, §27, §28, §29, §30
# [3] = target: T1, human thyroid peroxidase (hTPO) (Homo sapiens, UniProt P07202); details: reference
# T1 sequence (P07202 19-933): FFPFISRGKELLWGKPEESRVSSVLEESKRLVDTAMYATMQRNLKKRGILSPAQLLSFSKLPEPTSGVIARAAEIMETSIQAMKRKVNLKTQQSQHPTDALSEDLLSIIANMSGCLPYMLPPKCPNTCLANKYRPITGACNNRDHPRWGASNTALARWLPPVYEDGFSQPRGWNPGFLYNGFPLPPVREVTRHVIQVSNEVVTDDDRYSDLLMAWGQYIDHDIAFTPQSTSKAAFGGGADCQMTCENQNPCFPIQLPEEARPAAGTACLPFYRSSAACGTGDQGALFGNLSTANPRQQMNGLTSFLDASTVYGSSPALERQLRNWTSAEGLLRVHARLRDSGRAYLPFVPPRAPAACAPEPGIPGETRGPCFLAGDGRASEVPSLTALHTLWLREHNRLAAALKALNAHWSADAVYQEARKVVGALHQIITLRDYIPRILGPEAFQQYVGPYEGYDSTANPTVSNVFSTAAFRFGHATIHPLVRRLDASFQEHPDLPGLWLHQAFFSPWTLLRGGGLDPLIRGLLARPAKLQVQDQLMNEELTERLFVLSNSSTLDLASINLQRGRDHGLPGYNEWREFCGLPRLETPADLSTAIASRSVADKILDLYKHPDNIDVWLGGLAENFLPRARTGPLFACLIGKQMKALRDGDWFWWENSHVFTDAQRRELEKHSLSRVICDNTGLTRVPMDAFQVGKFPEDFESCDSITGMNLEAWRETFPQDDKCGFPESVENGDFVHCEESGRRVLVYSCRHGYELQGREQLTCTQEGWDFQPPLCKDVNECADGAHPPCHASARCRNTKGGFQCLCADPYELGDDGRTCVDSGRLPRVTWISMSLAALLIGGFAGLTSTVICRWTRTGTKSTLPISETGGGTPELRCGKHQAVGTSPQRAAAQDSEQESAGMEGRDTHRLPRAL
# Method: hTPO was derived from Nthy-ori 3-1 cells. Cell lysate containing hTPO in Glycine-NaOH buffer (pH
# 9.0) was incubated for 30 minutes at 37°C in the presence of serial dilutions of the compounds in
# as §1
# was measured on a Berthold luminometer.
# as §9, §10
# compound for these assays, preincubations with rat liver S9 were performed.
# Transthyretin (TTR) = Transthyretin (TTR) (Homo sapiens, UniProt P02766); details: reference
# Method: DMSO (1% compound stock in incubation mixture). The incubation mixture was transferred to 96 -
# was measured on a Berthold luminometer.
# as §2, §3, §4
# (see CALUX bioassays). For this TRβ CALUX exposure, serum-free assay medium was used.
# [4] = HepG2, 24 h, NR = No response observed
compound,measurement,setting,value
"CC[C@@]1(O)C(=O)OCc2c1cc1n(c2=O)Cc2cc3ccccc3nc2-1 [(S)-(+)-camptothecin, reference compound]",DNA damage: Phospho-p53: MEC,"HepG2 cells; HepG2, 24 h",0.412 µM
same,DNA damage: p-H2AX: MEC,"HepG2 cells; HepG2, 24 h",1.06 µM
same,DNA damage: Phospho-p53: Effect,HepG2 cells; [4],increase
same,DNA damage: p-H2AX: Effect,HepG2 cells; [4],increase
same,AC50,"HepG2 cells; HepG2, 24 h, read-out: DNA damage: Phospho-p53: AC50",1.25 µM
same,AC50,"HepG2 cells; HepG2, 24 h, read-out: DNA damage: p-H2AX: AC50",9.1 µM
"CCCCCC[C@H]1C(=O)O[C@H](C)[C@H](NC(=O)c2cccc(NC=O)c2O)C(=O)O[C@@H](C)[C@@H]1OC(=O)CC(C)C [Antimycin A, reference compound]",Mitochondrial mass: Effect,HepG2 cells; [4],increase
same,AC50,"HepG2 cells; Homo sapiens, HepG2, 24 h, read-out: Mitochondrial mass: AC50",0.245 µM
"c1ccc2c(c1)cc1ccc3cccc4ccc2c1c34 [Benzo(a)pyrene, reference compound]",AC50,"HepG2 cells; Homo sapiens, HepG2, 24 h, read-out: AhR Translocation: AC50",> 100 µM
same,AhR Translocation: MEC,"HepG2 cells; human, 24 h",0.389 µM
"[Cd+2].[Cl-].[Cl-] [Cadmium (II) chloride, reference compound]",Metal stress: MTF1: MEC,"HepG2 cells; HepG2, 24 h",0.0751 µM
same,Metal stress: metallothionein: MEC,"HepG2 cells; HepG2, 24 h",0.0751 µM
same,Metal stress: MTF1: Effect,HepG2 cells; [4],increase
same,Metal stress: metallothionein: Effect,HepG2 cells; [4],increase
same,AC50,"HepG2 cells; HepG2, 24 h, read-out: Metal stress: MTF1: AC50",7.05 µM
same,AC50,"HepG2 cells; HepG2, 24 h, read-out: Metal stress: metallothionein: AC50",7.05 µM
"CC(=O)N(O)CCCCCNC(=O)CCC(=O)N(O)CCCCCNC(=O)CCC(=O)N(O)CCCCCN.CS(=O)(=O)O [Deferoxamine mesylate salt, reference compound]",Inflammation & pH: HIF1α: Effect,HepG2 cells,increase
same,Inflammation & pH: HIF1α: MEC,HepG2 cells,6.2 µM
same,Inflammation & pH: ICAM-1: Effect,HepG2 cells,increase
same,Inflammation & pH: ICAM-1: MEC,HepG2 cells,17.4 µM
same,Inflammation & pH: intracellular pH: Effect,HepG2 cells,increase
same,Inflammation & pH: intracellular pH: MEC,HepG2 cells,6.46 µM
same,AC50,"HepG2 cells; HepG2, 24 h, read-out: Inflammation & pH: HIF1α: AC50",4.31 µM
same,AC50,"HepG2 cells; HepG2, 24 h, read-out: Inflammation & pH: ICAM-1: AC50",> 200 µM
same,AC50,"HepG2 cells; HepG2, 24 h, read-out: Inflammation & pH: intracellular pH: AC50",> 200 µM
"C=C(CC)C(=O)c1ccc(OCC(=O)O)c(Cl)c1Cl [Ethacrynic acid, reference compound]",AC50,"HepG2 cells; Homo sapiens, HepG2, 24 h, read-out: Oxidative stress: HMOX1: AC50",19.2 µM
same,AC50,"HepG2 cells; Homo sapiens, HepG2, 24 h, read-out: Oxidative stress: NRF2: AC50",28 µM
same,AC50,"HepG2 cells; Homo sapiens, HepG2, 24 h, read-out: Oxidative stress: SRXN1: AC50",19 µM
same,Oxidative stress: HMOX1: MEC,"HepG2 cells; human, 24 h",0.824 µM
same,Oxidative stress: NRF2: MEC,"HepG2 cells; human, 24 h",3.52 µM
same,Oxidative stress: SRXN1: MEC,"HepG2 cells; human, 24 h",6.17 µM
"C=C[C@@]1(C)CC(=O)[C@]2(O)[C@@]3(C)[C@@H](O)CCC(C)(C)[C@@H]3[C@H](O)[C@H](OC(C)=O)[C@@]2(C)O1 [Forskolin, reference compound]","Steroidogenesis (ERα) 17β-estradiol LOEC, reference compound",H295R cells [1],−6.0 Log M
same,"Steroidogenesis (AR) Testosterone LOEC, reference compound",H295R cells [2],−6.0 Log M
"C[C@H](CCC(=O)O)C[C@H](C)C[C@H](C)C(=O)/C=C(\O)[C@H](C)C[C@H](C)C/C=C/[C@@H](C)[C@@H](O)[C@@H](C)[C@@H](O)C[C@@H]1CC[C@@](C)([C@H]2CC[C@@](C)([C@@H](C)O)O2)O1 [Ionomycin, reference compound]",Apoptosis & necrosis: caspase 3/7: MEC,"HepG2 cells; HepG2, 24 h",0.0225 µM
same,Apoptosis & necrosis: cell cycle arrest: MEC,"HepG2 cells; HepG2, 24 h",0.0283 µM
same,Inflammation & pH: IL-8: MEC,"HepG2 cells; HepG2, 24 h",0.496 µM
same,Apoptosis & necrosis: caspase 3/7: Effect,HepG2 cells; [4],increase
same,Apoptosis & necrosis: cell cycle arrest: Effect,HepG2 cells; [4],decrease
same,Inflammation & pH: IL-8: Effect,HepG2 cells; [4],increase
same,AC50,"HepG2 cells; Homo sapiens, HepG2, 24 h, read-out: Apoptosis & necrosis: caspase 3/7: AC50",0.798 µM
same,AC50,"HepG2 cells; Homo sapiens, HepG2, 24 h, read-out: Apoptosis & necrosis: cell cycle arrest: AC50",0.056 µM
same,AC50,"HepG2 cells; Homo sapiens, HepG2, 24 h, read-out: Apoptosis & necrosis: cell membrane permeability: AC50",30.8 µM
same,AC50,"HepG2 cells; Homo sapiens, HepG2, 24 h, read-out: Inflammation & pH: IL-8: AC50",> 10 µM
"CCCCS(=N)(=O)CCC(N)C(=O)O [L-BSO, reference compound]",GSH content: Effect,HepG2 cells,decrease
same,GSH content: MEC,HepG2 cells,0.725 µM
same,AC50,"HepG2 cells; HepG2, 24 h, read-out: GSH content: AC50",37.5 µM
"Cc1oncc1C(=O)Nc1ccc(C(F)(F)F)cc1 [Leflunamide, reference compound]",Nuclear size: Effect,HepG2 cells,increase
same,Nuclear size: MEC,HepG2 cells,1.18 µM
same,AC50,"HepG2 cells; HepG2, 24 h, read-out: Nuclear size: AC50",9.87 µM
"Cn1cc[nH]c1=S [Methimazole, reference compound]","hTPO inhibition (thyroid) LOEC, reference compound",[3],−6.3 Log M
"CN(CCOc1ccc(CC2SC(=O)NC2=O)cc1)c1ccccn1 (stereo not drawn) [Rosiglitazone, reference compound]",AC50,"HepG2 cells; Homo sapiens, HepG2, 24 h, read-out: Mitochondrial oxidative stress: PGC1α: AC50",> 125 µM
same,Mitochondrial oxidative stress: PGC1α: MEC,"HepG2 cells; human, 24 h",67.8 µM
"C=C(C)[C@H]1Cc2c(ccc3c2O[C@@H]2COc4cc(OC)c(OC)cc4[C@@H]2C3=O)O1 [Rotenone, reference compound]",Cellular ATP: MEC,"HepG2 cells; HepG2, 24 h",< 0.04 µM
same,LDH release: MEC,"HepG2 cells; HepG2, 24 h",0.138 µM
same,Mitochondrial membrane potential: MEC,"HepG2 cells; HepG2, 24 h",0.00254 µM
same,Oxidative stress (ROS): MEC,"HepG2 cells; HepG2, 24 h",0.681 µM
same,Seahorse assay: Extracellular acidification rate (ECAR): MEC,"HepG2 cells; HepG2, 24 h",0.00546 µM
same,Seahorse assay: oxygen consumption rate (OCR): MEC,"HepG2 cells; HepG2, 24 h",0.000832 µM
same,Seahorse assay: reserve capacity: MEC,"HepG2 cells; HepG2, 24 h",0.000657 µM
same,AC50,"HepG2 cells; Homo sapiens, HepG2, 24 h, read-out: Cellular ATP: AC50",3.05 µM
same,AC50,"HepG2 cells; Homo sapiens, HepG2, 24 h, read-out: LDH release: AC50",57.6 µM
same,AC50,"HepG2 cells; Homo sapiens, HepG2, 24 h, read-out: Mitochondrial membrane potential: AC50",0.094 µM
same,AC50,"HepG2 cells; Homo sapiens, HepG2, 24 h, read-out: Oxidative stress (ROS): AC50",> 100 µM
same,AC50,"HepG2 cells; Homo sapiens, HepG2, 24 h, read-out: Seahorse assay: Extracellular acidification rate (ECAR): AC50",0.00549 µM
same,AC50,"HepG2 cells; Homo sapiens, HepG2, 24 h, read-out: Seahorse assay: oxygen consumption rate (OCR): AC50",0.00432 µM
same,AC50,"HepG2 cells; Homo sapiens, HepG2, 24 h, read-out: Seahorse assay: reserve capacity: AC50",0.00248 µM
"CN[C@H]1CC[C@@H](c2ccc(Cl)c(Cl)c2)c2ccccc21 [Sertraline, reference compound]",ER stress panel 2: PERK: Effect,HepG2 cells,increase
same,Phospholipidosis: Effect,HepG2 cells,increase
same,Steatosis: Effect,HepG2 cells,increase
same,AC50,"HepG2 cells; Homo sapiens, HepG2, 24 h, read-out: ER stress panel 2: PERK: AC50",> 6.25 µM
same,ER stress panel 2: PERK: MEC,"HepG2 cells; human, 24 h",2.17 µM
same,Phospholipidosis: Fold increase,"HepG2 cells; human, 24 h",4.16
same,Phospholipidosis: MEC,"HepG2 cells; human, 24 h",0.0965 µM
same,Steatosis: Fold increase,"HepG2 cells; human, 24 h",2.02
same,Steatosis: MEC,"HepG2 cells; human, 24 h",8.36 µM
"[Cl-].[Na+] [Sodium chloride, reference compound]",Osmotic & heat shock: NFAT: MEC,"HepG2 cells; HepG2, 24 h",1430 µM
same,Osmotic & heat shock: NFAT: Effect,HepG2 cells; [4],increase
same,AC50,"HepG2 cells; HepG2, 24 h, read-out: Osmotic & heat shock: NFAT: AC50",> 80000 µM
"OC[C@@H](O)[C@@H](O)[C@H](O)[C@@H](O)CO [Sorbitol, reference compound]",Osmotic & heat shock: hsp70: Effect,HepG2 cells,increase
same,AC50,"HepG2 cells; Homo sapiens, HepG2, 24 h, read-out: Osmotic & heat shock: hsp70: AC50",91700 µM
same,Osmotic & heat shock: hsp70: MEC,"HepG2 cells; human, 24 h",29000 µM
"CC(C)(c1cc(Br)c(O)c(Br)c1)c1cc(Br)c(O)c(Br)c1 [Tetrabromobisphenol A, reference compound]","TTR binding (thyroid) LOEC, reference compound",Transthyretin (TTR),−7.9 Log M
"CCCN(CCOc1c(Cl)cc(Cl)cc1Cl)C(=O)n1ccnc1 [prochloraz, reference compound]","Steroidogenesis (ERα) 17β-estradiol LOEC, reference compound",H295R cells [1],−6.0 Log M
same,"Steroidogenesis (AR) Testosterone LOEC, reference compound",H295R cells [2],−6.0 Log M
Tunicamycin [reference compound],ER stress panel 1: BiP: MEC,"HepG2 cells; HepG2, 24 h",< 0.391 µM
same,ER stress panel 1: ER integrity: MEC,"HepG2 cells; HepG2, 24 h",0.453 µM
same,ER stress panel 1: XBP1: MEC,"HepG2 cells; HepG2, 24 h",0.532 µM
same,ER stress panel 2: ATF4: MEC,"HepG2 cells; HepG2, 24 h",< 0.391 µM
same,ER stress panel 2: CHOP: MEC,"HepG2 cells; HepG2, 24 h",0.955 µM
same,ER stress panel 1: BiP: Effect,HepG2 cells; [4],increase
same,ER stress panel 1: ER integrity: Effect,HepG2 cells; [4],increase
same,ER stress panel 1: XBP1: Effect,HepG2 cells; [4],increase
same,ER stress panel 2: ATF4: Effect,HepG2 cells; [4],increase
same,ER stress panel 2: CHOP: Effect,HepG2 cells; [4],increase
same,AC50,"HepG2 cells; HepG2, 24 h, read-out: ER stress panel 1: BiP: AC50",> 1.56 µM
same,AC50,"HepG2 cells; HepG2, 24 h, read-out: ER stress panel 1: ER integrity: AC50",2.22 µM
same,AC50,"HepG2 cells; HepG2, 24 h, read-out: ER stress panel 1: XBP1: AC50",> 3.13 µM
same,AC50,"HepG2 cells; HepG2, 24 h, read-out: ER stress panel 2: ATF4: AC50",27.9 µM
same,AC50,"HepG2 cells; HepG2, 24 h, read-out: ER stress panel 2: CHOP: AC50",> 6.25 µM
